Source: patent US4473578A, “β-Lactam antibiotics and their use” (Beecham Group Limited, priority 1979, dated 1984)
In brackets after ≈: the same amount, converted by molar mass. Where a name gives a salt, the structure may show the parent alone. Read-outs that look alike come from different tables or passages of the source.

Key:
Assay in all cases: MIC in agar
Type in all cases: cell-based
Escherichia coli 0111 = tested on: Escherichia coli 0111
Source text: (§1) a. Antibacterial effectiveness of compounds of
(§2) Examples 6 and 7 in agar.
(§3) (μg/ml) in agar of compound

[1] = tested on: Staphylococcus aureus Russell
Source text: as §1, §2, §3

Pseudomonas aeruginosa A = tested on: Pseudomonas aeruginosa A
Source text: as §1, §2, §3

Shigella sonnei MB 11967 = conditions: for MIC: MB11967
Source text: as §1, §2, §3

Escherichia coli JT39 = tested on: Escherichia coli JT39
Source text: as §1, §2, §3

Proteus vulgaris W091 = tested on: Proteus vulgaris W091
Source text: as §1, §2, §3

Bacillus subtilis A = conditions: for MIC: Bacillus subtilis
Source text: as §1, §2, §3

[2] = tested on: Streptococcus pyogenes CN10
Source text: as §1, §2, §3

Klebsiella aerogenes A = tested on: Klebsiella aerogenes A
Source text: as §1, §2, §3

Proteus rettgeri WM16 = conditions: for MIC: Providencia rettgeri
Source text: as §1, §2, §3

Streptococcus faecalis I = conditions: for MIC: Enterococcus faecalis
Source text: as §1, §2, §3

Serratia marcescens US20 = tested on: Serratia marcescens US20
Source text: as §1, §2, §3

Proteus morganii 1580 = conditions: for MIC: Morganella morganii
Source text: as §1, §2, §3

Proteus mirabilis C977 = tested on: Proteus mirabilis C977
Source text: as §1, §2, §3

[3] = tested on: Staphylococcus aureus Oxford
Source text: as §1, §2, §3

Enterobacter cloacae N1 = tested on: Enterobacter cloacae N1
Source text: as §1, §2, §3

[4] = tested on: Salmonella typhimurium CT10; conditions: for MIC: Salmonella enterica
Source text: as §1, §2, §3

Citrobacter freundii E8 = tested on: Citrobacter freundii E8
Source text: as §1, §2, §3

E. coli ESS = conditions: Escherichia coli
Source text: | (μg/ml) in agar of compound

[5] = tested on: Staphylococcus aureus 1517
Source text: as §1, §2, §3

[6] = in agar, Staphylococcus aureus Russell, read-out: M.I.C.
[7] = in agar, Pseudomonas aeruginosa A, read-out: M.I.C.
[8] = in agar, Escherichia coli JT39, read-out: M.I.C.
[9] = in agar, Proteus vulgaris W091, read-out: M.I.C.
[10] = in agar, Klebsiella aerogenes A, read-out: M.I.C.
[11] = in agar, Proteus rettgeri WM16, read-out: M.I.C.
[12] = in agar, Streptococcus faecalis I, read-out: M.I.C.
[13] = in agar, Serratia marcescens US20, read-out: M.I.C.
[14] = in agar, Proteus morganii 1580, read-out: M.I.C.
[15] = in agar, Proteus mirabilis C977, read-out: M.I.C.
[16] = in agar, Staphylococcus aureus Oxford, read-out: M.I.C.
[17] = in agar, Enterobacter cloacae N1, read-out: M.I.C.
[18] = in agar, Salmonella typhimurium CT10, read-out: M.I.C.
[19] = in agar, Staphylococcus aureus 1517, read-out: M.I.C.
[20] = in agar, Citrobacter freundii E8, read-out: M.I.C.

SMILES	MIC (E. coli ESS) [µg/mL]	MIC (Escherichia coli 0111) [µg/mL]	MIC [1, 6] [µg/mL]	MIC (Pseudomonas aeruginosa A; [7]) [µg/mL]	MIC (Shigella sonnei MB 11967) [µg/mL]	MIC (Escherichia coli JT39; [8]) [µg/mL]	MIC (Proteus vulgaris W091; [9]) [µg/mL]	MIC (Klebsiella aerogenes A; [10]) [µg/mL]	MIC (Proteus rettgeri WM16; [11]) [µg/mL]	MIC (Streptococcus faecalis I; [12]) [µg/mL]	MIC (Serratia marcescens US20; [13]) [µg/mL]	MIC (Proteus morganii 1580; [14]) [µg/mL]	MIC (Proteus mirabilis C977; [15]) [µg/mL]	MIC [3, 16] [µg/mL]	MIC (Enterobacter cloacae N1; [17]) [µg/mL]	MIC [4, 18] [µg/mL]	MIC [5, 19] [µg/mL]	MIC (Citrobacter freundii E8; [20]) [µg/mL]	MIC (Bacillus subtilis A) [µg/mL]	other results
CCSC1=C(C(=O)[O-])N2C(=O)[C@H]([C@H](C)O)[C@H]2C1.[Na+] [Example 7]																				M.I.C. (Escherichia coli 0111): 5.0 µg/mL; M.I.C. ([1]; in agar, Staphylococcus aureus Russell): 1.2 µg/mL; M.I.C. (Pseudomonas aeruginosa A; in agar, Pseudomonas aeruginosa A): > 50 µg/mL; M.I.C. (Shigella sonnei MB 11967): 5.0 µg/mL; M.I.C. (Escherichia coli JT39; in agar, Escherichia coli JT39): 2.5 µg/mL; M.I.C. (Proteus vulgaris W091; in agar, Proteus vulgaris W091): 5.0 µg/mL; M.I.C. (Bacillus subtilis A; in agar, Bacillus subtilis A): 5.0 µg/mL; M.I.C. ([2]; in agar, Streptococcus pyogenes CN10): 1.2 µg/mL; M.I.C. (Klebsiella aerogenes A; in agar, Klebsiella aerogenes A): 2.5 µg/mL; M.I.C. (Proteus rettgeri WM16; in agar, Proteus rettgeri WM16): 5.0 µg/mL; M.I.C. (Streptococcus faecalis I; in agar, Streptococcus faecalis I): > 50 µg/mL; M.I.C. (Serratia marcescens US20; in agar, Serratia marcescens US20): 5.0 µg/mL; M.I.C. (Proteus morganii 1580; in agar, Proteus morganii 1580): 2.5 µg/mL; M.I.C. (Proteus mirabilis C977; in agar, Proteus mirabilis C977): 12.5 µg/mL; M.I.C. ([3]; in agar, Staphylococcus aureus Oxford): 1.2 µg/mL; M.I.C. (Enterobacter cloacae N1; in agar, Enterobacter cloacae N1): 5.0 µg/mL; M.I.C. ([4]; in agar, Salmonella typhimurium CT10): 2.5 µg/mL; M.I.C. (Citrobacter freundii E8; in agar, Citrobacter freundii E8): 2.5 µg/mL
C[C@H](O)[C@H]1C(=O)N2C(C(=O)O)=C(S/C=C\C(=O)OCCN)C[C@H]12 [Example 18, (5R,6S)-3-[2-(Z)-(2-Aminoethoxycarbonyl)ethenylthio]-6-[(S)-1-hydroxyethyl]-7-oxo-1-azabicyclo[3.2.0]hept-2-ene-2-carboxylic acid]	1 (≈ 2.92 µM)	3.1 (≈ 9.05 µM)	0.4 (≈ 1.17 µM)	25 (≈ 73 µM)	3.1 (≈ 9.05 µM)	3.1 (≈ 9.05 µM)	6.2 (≈ 18.1 µM)	3.1 (≈ 9.05 µM)	6.2 (≈ 18.1 µM)	12.5 (≈ 36.5 µM)	1.2 (≈ 3.5 µM)	3.1 (≈ 9.05 µM)	12.5 (≈ 36.5 µM)	≤ 0.1	3.1 (≈ 9.05 µM)	3.1 (≈ 9.05 µM)	6.2 (≈ 18.1 µM)	3.1 (≈ 9.05 µM)		MIC ([2]; in agar, Streptococcus pyogenes CN10, read-out: M.I.C.): ≤ 0.1 µg/mL
CSC1=C(C(=O)[O-])N2C(=O)[C@H]([C@H](C)O)[C@H]2C1.[Na+] [Example 6, Sodium (5R, 6S)-3-methylthio-6-[(S)-1-hydroxyethyl]-7-oxo-1-azabicyclo[3.2.0]hept-2-ene-2-carboxylate]		12.5			12.5														25	MIC ([1]; Staphylococcus aureus): 6.2 µg/mL; MIC (Pseudomonas aeruginosa A; Pseudomonas aeruginosa): > 100 µg/mL; MIC (Escherichia coli JT39; Escherichia coli, JT39): 12.5 µg/mL; MIC (Proteus vulgaris W091; Proteus vulgaris, W091): 25 µg/mL; MIC ([2]; Streptococcus pyogenes, CN10): 25 µg/mL; MIC (Klebsiella aerogenes A; Klebsiella aerogenes): 12.5 µg/mL; MIC (Proteus rettgeri WM16; WM16): 25 µg/mL; MIC (Streptococcus faecalis I): > 100 µg/mL; MIC (Serratia marcescens US20; Serratia marcescens, US20): 12.5 µg/mL; MIC (Proteus morganii 1580; 1580): 25 µg/mL; MIC (Proteus mirabilis C977; Proteus mirabilis, C977): 50 µg/mL; MIC ([3]; Staphylococcus aureus): 3.1 µg/mL; MIC (Enterobacter cloacae N1; Enterobacter cloacae, N1): 28 µg/mL; MIC ([4]; TYPHIMURIUM): 12.5 µg/mL; MIC ([5]; Staphylococcus aureus, 1517): 100 µg/mL; MIC (Citrobacter freundii E8; Citrobacter freundii, E8): 12.5 µg/mL
C[C@H](OS(=O)(=O)O)[C@@H]1C(=O)N2C(C(=O)O)=C(S/C=C\C(=O)O)C[C@H]12 [Example 22, The Trisodium salt of (5R,6R)-3-[(Z)-2-carboxyethenylthio]-6-[(S)-1-hydroxysulphonyloxyethyl]-7-oxo-1-azabicyclo[3.2.0]hept-2-ene-2-carboxylic acid]	1.2	1.2	2.5	> 50	1.2	1.2	1.2	1.2	1.2	12.5	5	0.5	1.2	2.5	0.5	1.2	25	25	0.5	
